Molecules are shown by their SMILES. The source made the active and inactive calls. Where only a bound is given, the exact number is not on record here.

The results in this text go back to ChEMBL document CHEMBL1201862, “PubChem BioAssay data set” (2004).

Assay [1] is described as follows: Vero 76 cell cytotoxicity, dose response, cytotoxicity control, set 3 (AID 602439). It counts as functional. The following applies: Venezuelan equine encephalitis virus.
For assay [2], the target named is T1, Microphthalmia-associated transcription factor (Homo sapiens, UniProt O75030).
T1 sequence (O75030 whole entry): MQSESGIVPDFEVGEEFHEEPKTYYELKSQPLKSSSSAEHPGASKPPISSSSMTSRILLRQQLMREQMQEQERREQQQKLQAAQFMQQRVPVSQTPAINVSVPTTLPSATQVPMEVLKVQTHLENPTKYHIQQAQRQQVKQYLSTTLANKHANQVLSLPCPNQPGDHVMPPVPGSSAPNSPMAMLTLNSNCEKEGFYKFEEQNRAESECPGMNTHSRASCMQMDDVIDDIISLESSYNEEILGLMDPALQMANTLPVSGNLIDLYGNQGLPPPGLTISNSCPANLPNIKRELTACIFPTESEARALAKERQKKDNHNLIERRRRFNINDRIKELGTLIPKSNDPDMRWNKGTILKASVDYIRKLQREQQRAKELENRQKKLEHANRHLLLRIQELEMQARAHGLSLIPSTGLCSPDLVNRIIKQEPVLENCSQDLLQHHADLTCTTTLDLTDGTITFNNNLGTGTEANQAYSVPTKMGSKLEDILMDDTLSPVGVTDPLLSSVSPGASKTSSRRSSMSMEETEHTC
Briefly: TRPM1 promoter luciferase signal decrease, dose response, MITF inhibitor project, cell-based, SK-MEL-5, cherry-picked, set 3 (AID 493073).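 Also: SK-MEL-5 melanoma cells with luciferase driven by the MITF target TRPM1 promoter.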 It counts as functional.

A short description of assay [3]: HepG2 cell cytotoxicity, dose response, cytotoxicity control for Shn3 inhibitor project, CellTiter-Glo, cherry-picked (AID 624134). It counts as functional, cell-based. (ATP-based viability assays read luminescence as a measure of living cells.)
Assay [4] is described as follows: Shn3 3'UTR reporter inhibitors, dose response, cell-based, Clone20 osteoblasts, firefly luciferase, cherry-picked (AID 624132).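 Also: firefly luciferase luminescence from reporter carrying the Shn3 3'UTR in osteoblasts.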 The assay is classed as functional.
Assay [5] in a line: control 3'UTR Renilla luciferase suppression, dose response, counter-screen for Shn3 inhibitor project, cell-based, Clone20-Shn3RL, cherry-picked (AID 624133). It counts as functional.
Assay [6] in a line: reduction of Shn3 3'UTR firefly luciferase signal, dose response, Schnurri-3 inhibitor project, cell-based, Clone20 osteoblasts, cherry-pick, set 2 (AID 720490).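 Also: actives lower the luminescence signal as inhibitors.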 The assay is classed as functional.
Assay [7] concerns Streptococcus sp. 'group A'. The experiment in a line: growth inhibition of control SK(-) GAS strain, dose response, counter-screen for streptokinase expression inhibitor project, luminescence, kanamycin, BacTiterGlo, confirmation (AID 1900). It counts as functional, organism-based.
The target in another assay is T2, Streptokinase A (Streptococcus pyogenes serotype M1, UniProt P10520).
T2 sequence (P10520 whole entry): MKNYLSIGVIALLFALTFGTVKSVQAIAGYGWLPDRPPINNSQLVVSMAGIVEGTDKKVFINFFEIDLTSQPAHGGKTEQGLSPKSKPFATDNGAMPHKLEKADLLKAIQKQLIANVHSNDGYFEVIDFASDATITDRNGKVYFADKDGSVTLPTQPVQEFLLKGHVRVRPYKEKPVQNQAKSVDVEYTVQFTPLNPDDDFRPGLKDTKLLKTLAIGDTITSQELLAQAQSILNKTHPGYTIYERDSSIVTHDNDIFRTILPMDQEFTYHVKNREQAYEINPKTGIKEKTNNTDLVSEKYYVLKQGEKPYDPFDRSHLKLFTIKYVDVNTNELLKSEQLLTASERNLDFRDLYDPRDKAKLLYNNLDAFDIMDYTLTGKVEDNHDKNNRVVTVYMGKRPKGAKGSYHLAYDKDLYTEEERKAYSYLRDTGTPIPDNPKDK
The experiment in a line: S. pyogenes streptokinase expression inhibitors, potency, dose response, plasminogen activation absorbance, OD405 (AID 1914).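 Also: secreted streptokinase activity via plasminogen activation per viability signal from cell pellet.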 It counts as functional, Streptococcus pyogenes M1 GAS.

Another assay relates to Streptococcus. Briefly: Group A Streptococcus viability loss, dose response, counter-screen for streptokinase expression inhibitor project, luminescence, BacTiterGlo (AID 1915).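 Also: potency for reduction of bacterial viability or growth.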 It counts as functional, organism-based. For orientation: A counterscreen serves to expose hits that act by an unwanted route or on another target.
Assay [8] is described as follows: HepG2 cell cytotoxicity, dose response, cytotoxicity control, ATP luminescence, cherry-pick, activator set 2 (AID 1053143). It counts as functional, cell-based.
Another assay has as its system INS1. Briefly: beta cell apoptosis inhibitors, cytokine rescue, dose response, luminescence, retest (AID 449756).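 Also: cell death triggered by IL-1 beta plus TNF-alpha plus IFN-gamma mixture; protective hits raise ATP signal compared with cytokine alone wells.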 It counts as functional, cell-based. To be noted: Rattus norvegicus.
Assay [9] addresses Disintegrin and metalloproteinase domain-containing protein 17 (Homo sapiens, UniProt P78536). The experiment in a line: exosite inhibitors of ADAM17, dose response, biochemical (AID 743260).
Assay [10] can be described thus: ADAM10 protease inhibitors, dose response, selectivity assay for ADAM17 exosite inhibitor project, biochemical, FRET peptide substrate, recombinant human ADAM10 (AID 743259).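 Also: ADAM10 enzyme cleaving a FRET peptide substrate.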
Assay [11] can be described thus: HEK293 Cytotoxicity Assay Measured in Cell-Based System Using Plate Reader - 7071-01_Inhibitor_Dose_CherryPick_Activity_Set2. It counts as functional.
In the next assay the test system is HEK293. The experiment in a line: HEK293T cell cytotoxicity, dose response, cytotoxicity control, ATP luminescence, cherry-pick samples (AID 687005).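 Also: cells exposed to compound for 48 hours.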 The assay is classed as functional, cell-based. The following applies: Homo sapiens.
The test system of another assay is HeLa. The experiment in a line: HeLa cell cytotoxicity, dose response, cytotoxicity control, ATP luminescence, cherry-pick samples (AID 687004). It counts as functional, cell-based. To be noted: Homo sapiens.
The target in assay [12] is Metabotropic glutamate receptor 3 (Rattus norvegicus, UniProt P31422). Briefly: mGlu3 NAM potency via calcium readout, dose response, mGlu3 NAM project, TREx293 cells, Galpha15, calcium flux (AID 651840). The assay is classed as functional. For orientation: Calcium flux is commonly read through the fluorescence of an indicator in the cells.
The nature of assay [13]: Late stage assay provider results from the probe development effort to identify selective inhibitors of heat shock protein 90 (HSP90): Absorbance-based cell proliferation assay in MCF7 cells. The assay is classed as functional.
A short description of assay [14]: Late stage assay provider results from the probe development effort to identify selective inhibitors of heat shock protein 90 (HSP90): Absorbance-based cell proliferation assay in SKBR3 cells. It counts as functional. The following applies: SK-BR-3.
Assay [15] deals with Protein disulfide-isomerase (Homo sapiens, UniProt P07237). Briefly: PDI inhibitors, insulin turbidity readout, confirmation, biochemical, dry powder samples, set 2 (AID 652146).
Assay [16] can be described thus: cytotoxicity in primary human melanocytes, dose response, cytotoxicity control, cell-based, plate reader, dry powder (AID 651920). The assay is classed as functional.
Assay [17] is described as follows: A375 melanoma cell cytotoxicity, dose response, counter-screen for MITF inhibitor project, CellTiter-Glo luminescence, dry powder, set 2 (AID 624489).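 Also: actives are compounds lowering A375 viability meaning general cytotoxicity.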 The assay is classed as functional, cell-based. The following applies: A-375.
A short description of assay [18]: A Cell-Based Confirmatory Screen for Compounds that Inhibit VEEV, TC-83 (8). It counts as functional.
The nature of assay [19]: Late stage assay provider results from the probe development effort to identify inhibitors of the Plasmodium falciparum M17 Leucine Aminopeptidase (M17LAP): radiolabel-based cell-based dose response assay to identify compounds that inhibit P. falciparum growth in RBCs Set 2. The assay is classed as functional.

Protein disulfide-isomerase, sequence (P07237 whole entry): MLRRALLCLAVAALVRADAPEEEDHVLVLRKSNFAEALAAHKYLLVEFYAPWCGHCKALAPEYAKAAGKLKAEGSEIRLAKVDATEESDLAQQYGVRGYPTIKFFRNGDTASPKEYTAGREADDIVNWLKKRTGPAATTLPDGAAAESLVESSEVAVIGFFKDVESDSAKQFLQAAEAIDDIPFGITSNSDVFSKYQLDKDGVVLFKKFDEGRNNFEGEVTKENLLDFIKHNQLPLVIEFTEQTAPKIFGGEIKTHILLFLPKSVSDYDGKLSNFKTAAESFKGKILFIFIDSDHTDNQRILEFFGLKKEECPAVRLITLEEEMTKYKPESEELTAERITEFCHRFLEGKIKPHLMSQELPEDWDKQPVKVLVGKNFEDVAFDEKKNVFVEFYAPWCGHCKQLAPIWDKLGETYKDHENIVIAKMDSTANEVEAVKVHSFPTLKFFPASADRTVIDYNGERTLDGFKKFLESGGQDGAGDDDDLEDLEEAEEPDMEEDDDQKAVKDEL
Disintegrin and metalloproteinase domain-containing protein 17, sequence (P78536 whole entry, the tested form may be a part): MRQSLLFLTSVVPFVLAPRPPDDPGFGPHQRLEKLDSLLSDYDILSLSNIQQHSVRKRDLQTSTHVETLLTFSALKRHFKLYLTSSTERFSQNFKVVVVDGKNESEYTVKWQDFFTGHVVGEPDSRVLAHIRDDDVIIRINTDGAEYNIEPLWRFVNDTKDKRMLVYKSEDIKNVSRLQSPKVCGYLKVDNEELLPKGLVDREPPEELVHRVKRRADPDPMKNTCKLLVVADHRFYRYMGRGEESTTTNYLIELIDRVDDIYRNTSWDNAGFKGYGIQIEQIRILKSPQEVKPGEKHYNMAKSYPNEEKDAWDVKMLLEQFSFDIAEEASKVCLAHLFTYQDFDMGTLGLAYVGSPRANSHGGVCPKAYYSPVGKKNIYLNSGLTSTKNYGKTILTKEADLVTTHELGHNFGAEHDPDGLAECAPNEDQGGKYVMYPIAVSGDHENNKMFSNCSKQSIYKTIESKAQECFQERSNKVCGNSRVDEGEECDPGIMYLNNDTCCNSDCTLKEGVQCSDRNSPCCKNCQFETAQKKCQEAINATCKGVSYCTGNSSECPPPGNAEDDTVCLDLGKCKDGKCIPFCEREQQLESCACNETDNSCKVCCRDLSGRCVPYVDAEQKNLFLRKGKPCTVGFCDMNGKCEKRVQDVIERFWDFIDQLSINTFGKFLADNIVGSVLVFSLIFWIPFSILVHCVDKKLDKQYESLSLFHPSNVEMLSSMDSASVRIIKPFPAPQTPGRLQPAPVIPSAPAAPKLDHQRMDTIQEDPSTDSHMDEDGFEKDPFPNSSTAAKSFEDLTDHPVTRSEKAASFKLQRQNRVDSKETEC
Metabotropic glutamate receptor 3, sequence (P31422 whole entry): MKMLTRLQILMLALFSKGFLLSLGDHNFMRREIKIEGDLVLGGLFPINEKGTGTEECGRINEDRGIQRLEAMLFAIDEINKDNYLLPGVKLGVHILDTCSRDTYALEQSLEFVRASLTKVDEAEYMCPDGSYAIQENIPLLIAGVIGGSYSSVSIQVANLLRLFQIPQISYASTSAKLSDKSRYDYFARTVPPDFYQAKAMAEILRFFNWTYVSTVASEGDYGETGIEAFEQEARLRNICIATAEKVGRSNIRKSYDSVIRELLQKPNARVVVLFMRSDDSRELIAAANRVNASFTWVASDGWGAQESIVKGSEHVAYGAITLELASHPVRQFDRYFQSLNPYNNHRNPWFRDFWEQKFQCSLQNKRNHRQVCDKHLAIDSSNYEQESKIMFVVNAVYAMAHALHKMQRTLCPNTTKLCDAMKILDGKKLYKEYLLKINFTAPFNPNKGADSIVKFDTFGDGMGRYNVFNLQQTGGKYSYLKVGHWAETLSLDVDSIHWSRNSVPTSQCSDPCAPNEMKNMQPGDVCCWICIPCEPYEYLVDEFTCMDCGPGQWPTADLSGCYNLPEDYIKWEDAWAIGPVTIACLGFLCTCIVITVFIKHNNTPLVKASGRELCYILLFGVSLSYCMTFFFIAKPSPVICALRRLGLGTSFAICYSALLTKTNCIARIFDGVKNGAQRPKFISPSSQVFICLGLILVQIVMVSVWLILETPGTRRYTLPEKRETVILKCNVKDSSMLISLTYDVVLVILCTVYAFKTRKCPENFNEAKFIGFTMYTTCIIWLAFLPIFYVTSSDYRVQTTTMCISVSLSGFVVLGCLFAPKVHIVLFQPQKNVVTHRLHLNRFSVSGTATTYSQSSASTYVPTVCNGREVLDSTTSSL

As for `O=C(Nc1nc2c(s1)CCCC2)c1cccs1`, the CC50 in assay [1] was > 50 µM (active).
Regarding `COc1ccccc1NS(=O)(=O)c1cc(NC(=O)c2ccc(Cl)nc2)ccc1Cl`, the concentration at half-maximal activity (AC50) was 11.3 µM (active) in assay [2]; 56.2 µM (active) in assay [3]; 3.12 µM (active) in assay [4]; 21 µM (active) in assay [5]; 3.71 µM (active) in [6].
For the molecule `CCOC(=O)c1sc(NC(=O)Nc2cccc(Cl)c2)cc1C`, the values for the EC50 (in [7]; at Streptokinase A; in the assay on Streptococcus) were 4.86 µM (active), 11.2 µM (active) and 4.1 µM (active), respectively. The figures for the AC50 (in [8]; in the assay with INS1) were 14.7 µM (active) and 4.57 µM (active), respectively.
`Cc1ccc(CC2(c3ccccc3)NC(=O)NC2=O)cc1` (centres undefined): the IC50 in assay [9] was 18.6 µM (inactive); in assay [10] it was > 69.4 µM (inactive).
For `CCCC#Cc1ccc2c(c1)O[C@H](CN(C)CCC)[C@H](C)CN([C@@H](C)CO)S2(=O)=O`, the AC50 in assay [11] is 14.6 µM (active); with HEK293 it was 14.6 µM (active); in the assay with HeLa, 42.6 µM (active).
As for `COc1ccc(C#Cc2ccc(C(=O)N3CCC[C@@H](O)C3)cc2)cc1`, the IC50 in [12] was found to be 0.597 µM.
Take `COc1ccccc1/N=N/c1c(O)[nH]c(=O)c(C#N)c1C`: the IC50 in assay [13] and in [14] was > 100 µM (inactive) throughout.
In the case of `C=CCOc1ccc(CN2CCC(CCOc3ccccc3)(C(=O)N3CCCC3)CC2)cc1Cl`, the AC50 in [15] was > 30 µM (inactive).
As to `O=C(NC1=C(N2CCN(c3ccccc3)CC2)C(=O)c2ccccc2C1=O)c1ccccc1`, the AC50 in assay [16] and in [17] was > 70 µM (inactive) each time.
On to `O=c1nc(Nc2ccc(OCc3ccccc3)cc2)sc2ncc(F)cc12`, for which, in assay [18], the IC50 was 1.42 µM (active).
Turning to `O=C(Cc1ccc2ccccc2c1)NO`, in [19], the IC50 is 5.8 µM (active).

Usually CC50 stands for the concentration at which the toxic effect on the cells reaches its halfway point. As usually defined, the AC50 is the concentration at which the activity in the assay is half-maximal. The term EC50 denotes the midpoint of the concentration-response curve. The IC50 is the midpoint of a concentration-inhibition curve.
